Measurements reported in patent US20250074906A1, “AZAINDOLE DERIVATIVE THAT INHIBITS H-PGDS” (SATO PHARMACEUTICAL CO., LTD., priority 2021, published 2025).
pIC50: −log10 of the molar value.

molecular target: T1, Recombinant human H-PGDS (Homo sapiens, UniProt O60760); experiment: H-PGDS inhibitory activity (prostaglandin D2 production measured by LC-MS/MS); assay type: biochemical; settings: recombinant human H-PGDS 1.0 nM expressed in E. coli; prostaglandin H2 25 μM; 15 min preincubation and 1 min reaction on ice
T1 construct: made in house; host or cells: E. coli
Experimental: The H-PGDS inhibitory activity of each Example compound was measured according to the method described in WO 2007/041634.
Recombinant human H-PGDS (final concentration: 1.0 nM) expressed in E. coli was mixed in an assay buffer containing 20 mM Tris-HCl (pH 8.0), 2 mM magnesium chloride, 2 mM reduced glutathione, and 0.5 mg/mL γ-globulin, and 150 μL of the mixture was dispensed into an 8-strip PCR tube (BM Equipment Co., Ltd). Test compounds (Example compounds) (16.5 μL) at various concentrations dissolved in DMSO were added and the mixture was preincubated for 15 minutes on ice.
Prostaglandin H2 (final concentration: 25 μM) (Cayman Chemical) was dispensed into another 8-strip PCR tube, and the solvent was dried and solidified using a vacuum concentrator (Thermo Fisher Scientific). To the dried and solidified prostaglandin H2 was added 50 μL of the assay buffer containing H-PGDS and each test compound after the preincubation, and the mixture was reacted on ice for 1 minute. 40 μL of this mixture was added to 40 μL of a stop solution (50 mM aqueous citric acid solution containing iron chloride at a final concentration of 4 mg/mL) to stop the reaction. Then, the reaction solution was deproteinized, added to a 96 square deep well plate (SHONANMARUHACHI STEC Co., Ltd.), and the prostaglandin D2 concentration in the reaction solution was measured by LC-MS/MS. ACQUITY (registered trademark) TQD (Waters) was used as a measuring instrument.
Prostaglandin D2 production activity (%) in the group with each test compound when a value obtained by subtracting the amount of production of prostaglandin D2 in the group without enzyme, which is non-specific production of prostaglandin D2, from the amount of production of prostaglandin D2 in the group without test compound (DMSO-addition group) in each 8-strip PCR tube is 100% was calculated. From the calculated activity value, the test compound concentration that inhibits prostaglandin D2 production by 50% (IC50) was determined.

T1 sequence (O60760 whole entry): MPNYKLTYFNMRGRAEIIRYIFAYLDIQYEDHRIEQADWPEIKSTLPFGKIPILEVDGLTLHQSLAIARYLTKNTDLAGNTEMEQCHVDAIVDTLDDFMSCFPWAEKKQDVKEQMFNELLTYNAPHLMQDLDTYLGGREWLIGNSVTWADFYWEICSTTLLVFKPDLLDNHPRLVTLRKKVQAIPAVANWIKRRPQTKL

| Compound | pIC50 |
| --- | --- |
| O=C(NC1CCS(=O)(=O)CC1)c1ccc(-c2ncc(Cl)c3[nH]ccc23)cc1 [Example 29, 4-(7-chloro-1H-pyrrolo[3,2-c]pyridin-4-yl)-N-(1,1-dioxotetrahydrothiopyran-4-yl)benzamide] | 9.07 |
| O=C(N[C@H]1CC[C@H](C2(O)CC2)CC1)c1ccc(-c2nccc3[nH]ccc23)c(F)c1 [Example 11, 3-fluoro-N-[trans-4-(1-hydroxycyclopropyl)cyclohexyl]-4-(1H-pyrrolo[3,2-c]pyridin-4-yl)benzamide] | 8.41 |
| C[C@]1(O)CC[C@@H](NC(=O)c2ccc(-c3ncc(Cl)c4[nH]ccc34)cc2)CC1 [Example 31, 4-(7-chloro-1H-pyrrolo[3,2-c]pyridin-4-yl)-N-(cis-4-hydroxy-4-methylcyclohexyl)benzamide] | 9.00 |
| CC(C)(O)[C@H]1CC[C@H](NC(=O)c2ccc(-c3ncc(Cl)c4[nH]ccc34)cc2)CC1 [Example 14, 4-(7-chloro-1H-pyrrolo[3,2-c]pyridin-4-yl)-N-[trans-4-(2-hydroxypropan-2-yl)cyclohexyl]benzamide] | 8.92 |
| O=C(NC1CCOCC1)c1ccc(-c2ncc(F)c3[nH]ccc23)cc1 [Example 24, 4-(7-fluoro-1H-pyrrolo[3,2-c]pyridin-4-yl)-N-(tetrahydropyran-4-yl)benzamide] | 9.07 |
| CC(C)(O)[C@H]1CC[C@H](NC(=O)c2ccc(-c3ncc(C(F)F)c4[nH]ccc34)cc2)CC1 [Example 18, 4-[7-(difluoromethyl)-1H-pyrrolo[3,2-c]pyridin-4-yl]-N-[trans-4-(2-hydroxypropan-2-yl)cyclohexyl]benzamide] | 8.55 |
| CC(C)(O)[C@H]1CC[C@H](NC(=O)c2ccc(-c3ncc(C#N)c4[nH]ccc34)cc2)CC1 [Example 15, 4-(7-cyano-1H-pyrrolo[3,2-c]pyridin-4-yl)-N-[trans-4-(2-hydroxypropan-2-yl)cyclohexyl]benzamide] | 8.47 |
| O=C(NC12CCC(O)(CC1)CC2)c1ccc(-c2nccc3[nH]ccc23)c(F)c1 [Example 6, 3-fluoro-N-(4-hydroxybicyclo[2.2.2]octan-1-yl)-4-(1H-pyrrolo[3,2-c]pyridin-4-yl)benzamide] | 8.96 |
| O=C(N[C@H]1CC[C@H](O)CC1)c1ccc(-c2ncc(F)c3[nH]ccc23)cc1 [Example 20, 4-(7-fluoro-1H-pyrrolo[3,2-c]pyridin-4-yl)-N-(trans-4-hydroxycyclohexyl)benzamide] | 9.03 |
| O=C(NC12CCC(O)(CC1)C2)c1ccc(-c2ncc(F)c3[nH]ccc23)cc1 [Example 19, 4-(7-fluoro-1H-pyrrolo[3,2-c]pyridin-4-yl)-N-(4-hydroxybicyclo[2.2.1]heptan-1-yl)benzamide] | 8.85 |

Further lines, results first:

| pIC50 | Compound |
| --- | --- |
| 9.02 | C[C@]1(O)CC[C@H](NC(=O)c2ccc(-c3ncc(F)c4[nH]ccc34)c(F)c2)CC1 [Example 37, 3-fluoro-4-(7-fluoro-1H-pyrrolo[3,2-c]pyridin-4-yl)-N-(trans-4-hydroxy-4-methylcyclohexyl)benzamide] |
| 9.19 | O=C(N[C@H]1CC[C@H](O)CC1)c1ccc(-c2ncc(F)c3[nH]ccc23)c(F)c1 [Example 39, 3-fluoro-4-(7-fluoro-1H-pyrrolo[3,2-c]pyridin-4-yl)-N-(trans-4-hydroxycyclohexyl)benzamide] |
| 9.04 | O=C(N[C@H]1CC[C@@H](O)CC1)c1ccc(-c2ncc(F)c3[nH]ccc23)c(F)c1 [Example 42, 3-fluoro-4-(7-fluoro-1H-pyrrolo[3,2-c]pyridin-4-yl)-N-(cis-4-hydroxycyclohexyl)benzamide] |
| 9.07 | C[C@]1(O)CC[C@H](NC(=O)c2ccc(-c3ncc(Cl)c4[nH]ccc34)cc2)CC1 [Example 34, 4-(7-chloro-1H-pyrrolo[3,2-c]pyridin-4-yl)-N-(trans-4-hydroxy-4-methylcyclohexyl)benzamide] |
| 9.05 | O=C(NC12CCC(O)(CC1)C2)c1ccc(-c2ncc(F)c3[nH]ccc23)c(F)c1 [Example 41, 3-fluoro-4-(7-fluoro-1H-pyrrolo[3,2-c]pyridin-4-yl)-N-(4-hydroxybicyclo[2.2.1]heptan-1-yl)benzamide] |
| 9.11 | CC(C)(O)[C@H]1CC[C@H](NC(=O)c2ccc(-c3nccc4[nH]ncc34)c(F)c2)CC1 [Example 49, 3-fluoro-N-[trans-4-(2-hydroxypropan-2-yl)cyclohexyl]-4-(1H-pyrazolo[4,3-c]pyridin-4-yl)benzamide] |
